# Test results as given in patent publication US20230212523A1, “CULTURE MEDIUM FOR LARYNGEAL CANCER EPITHELIAL CELLS, CULTURE METHOD, AND APPLICATION THEREOF” (CAS (Hefei) Institute of Technology Innovation, priority 2020, published 2023).
# B1: fibroblast growth factor 7: growth factor from Sino Biological (protein, UniProt P21781 32-194, looked up)
# Fibroblast growth factor 7: CNDMTPEQMATNVNCSSPERHTRSYDYMEGGDIRVRRLFCRTQWYLRIDKRGKVKGTQEMKNNYNIMEIRTVAVGIVAIKGVESEFYLAMNKEGKLYAKKECNEDCNFKELILENHYNTYASAKWTHNGGEMFVALNQKGIPVRGKKTKKEQKTAHFLPMAIT
# Tested on: primary laryngeal cancer cells (No. 0S0064)
# Test: Effects of different factors added to basic medium BM on proliferation of primary laryngeal cancer cells (cell count)
# Assay type: cell-based, human
# Details: factor added to BM, in specific concentration ranges; 10 days of culture on irradiated NIH-3T3; FIGS. 1A-1F
# Procedure: The cultured NIH-3T3 cells (purchased from ATCC, and cultured in DMEM culture solution containing 10% fetal bovine serum) were digested with 0.25% trypsin (purchased from Thermo Fisher), and the digestion was terminated by using DMEM culture solution (purchased from Corning) containing 5%(v/v) fetal bovine serum (purchased from ExCell Biotech Co., Ltd.), 100 U/mL penicillin and 100 μg/mL streptomycin; the resultant was collected into a 15 mL centrifuge tube and centrifuged at 1500 rpm for 4 minutes, and then the supernatant was discarded. The centrifuged cell sediments were resuspended in the above DMEM culture solution containing 10% fetal bovine serum and were counted with a flow imaging counter (JIMBIO FIL, Jiangsu Jimbio Technology Co., Ltd.). The cells were irradiated with γ-ray of 35 Gy irradiation dose, and then were inoculated in a culture vessel at a density of 2×10^4 cells/cm^2. The cells were incubated in a 37° C. incubator until the cells adhere to the wall. Before the inoculation of primary cells, the culture medium was removed from the culture vessel.
# Preparation of basic medium (abbreviated as BM): BM was prepared by adding 0.2 vol. % of Primocin (purchased from Invivogen, with a concentration of 50 mg/mL) to the commercial DMEM/F-12 medium to provide a final concentration of 100 μg/mL.
# Next, different kinds and concentrations of additive factors (Table 3) were added to the basic medium (BM), so as to prepare culture mediums for laryngeal cancer epithelial cells containing different additive components.
# The culture mediums with different components were added at a volume of 500 μl/well to 48-well plates which were pre-laid with γ-ray irradiated NIH-3T3 cells. Laryngeal cancer cells (No. 0S0064) isolated from laryngeal cancer tissue according to the same method as described in Example 1 were inoculated at a cell count of 4×10^4cells/well in the above-mentioned 48-well culture plates which were pre-laid with γ-ray irradiated NIH-3T3 cells. After surface disinfection, the plates were placed in a 37° C., 5% CO2 incubator (purchased from Thermo Fisher), such that equal numbers of freshly isolated laryngeal cancer cells (No. 0S0064) were cultured under different medium formulations. The culture mediums were replaced and the trophoblastic cells were supplemented every 4 days. after the start of culture. After 10 days of culture, cell counts were performed. The basic medium (BM) without addition of any additive was used as the experimental control.
# As shown in the figures, adding different concentrations of different factors according to Table 3 to BM would result in different effects on cell proliferation.
row,Molecule,effect on cell proliferation (ratio of cell number to that in basic medium BM)
1,hepatocyte growth factor: growth factor from Sino Biological,certain promoting effects on cell proliferation
2,"CN1C(=O)C(c2c(F)cccc2F)N(C)c2nc(Nc3ccc(S(N)(=O)=O)cc3)ncc21 (stereo not drawn) [Compound 1, 4-((7-(2,6-difluorophenyl)-5,8-dimethyl-6-oxo-5,6,7,8-tetrahydropteridin-2-yl)amino)benzsulfamide]",certain promoting effects on cell proliferation
3,"Cc1cccc(-c2nn(C(=S)Nc3ccccc3)cc2-c2ccnc3ccccc23)n1 [Compound A83-C1, A83-C1, reference compound]",certain promoting effects on cell proliferation
4,insulin-like growth factor 1: growth factor from Sino Biological,certain promoting effects on cell proliferation
5,"C[C@@H](N)[C@H]1CC[C@H](C(=O)Nc2ccncc2)CC1 [Compound Y27632, Y27632, reference compound]",certain promoting effects on cell proliferation
6,B1,certain promoting effects on cell proliferation
